Source: patent US11912686B2 (Gilead Sciences, Inc., priority 2020, dated 2024)

These compounds were tested against human LPAR1 (Homo sapiens (Human), UniProt Q92633) (assay: LPAR1 intracellular calcium mobilization assay (antagonist mode, FLIPR)). Details: CHO-K1 EDG2 cells expressing human LPAR1, LPA 18:2 at EC80 (100 nM), test compound 0.5 nM to 10 μM.
Type: cell-based

human LPAR1, sequence (Q92633 whole entry): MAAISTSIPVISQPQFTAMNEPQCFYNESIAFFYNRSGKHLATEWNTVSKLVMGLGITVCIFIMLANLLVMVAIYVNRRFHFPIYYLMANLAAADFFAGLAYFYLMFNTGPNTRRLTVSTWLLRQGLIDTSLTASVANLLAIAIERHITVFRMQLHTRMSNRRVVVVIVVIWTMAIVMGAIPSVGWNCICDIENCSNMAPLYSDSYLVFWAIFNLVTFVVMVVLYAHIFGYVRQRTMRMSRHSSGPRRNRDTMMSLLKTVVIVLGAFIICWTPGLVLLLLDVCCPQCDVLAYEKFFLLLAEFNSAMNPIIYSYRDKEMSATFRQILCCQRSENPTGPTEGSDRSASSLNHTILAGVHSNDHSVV

Question: C[C@@H](OC(=O)Nc1c(-c2cnc(NC(=O)c3cnc(C(F)F)nc3)cn2)nnn1C)c1cccnc1Cl [Compound 324, (R)-1-(2-chloropyridin-3-yl)ethyl (4-(5-(2-(difluoromethyl)pyrimidine-5-carboxamido)pyrazin-2-yl)-1-methyl-1H-1,2,3-triazol-5-yl)carbamate] was tested. Which EC50 did it give?
Answer: Its EC50 is 53.7 nM.

Question: C[C@@H](OC(=O)Nc1c(-c2cnc(NC(=O)c3cnc(C(F)(F)F)nc3)cn2)nnn1C)c1cccnc1F [Compound 325, (R)-1-(2-fluoropyridin-3-yl)ethyl (1-methyl-4-(5-(2-(trifluoromethyl)pyrimidine-5-carboxamido)pyrazin-2-yl)-1H-1,2,3-triazol-5-yl)carbamate] was tested. Which EC50 did it give?
Answer: The EC50 was 185 nM.

Question: For C[C@@H](OC(=O)Nc1c(-c2cnc(NC(=O)c3ccc(C(F)(F)F)nc3)cn2)nnn1C)c1cccnc1F [Compound 326, (R)-1-(2-fluoropyridin-3-yl)ethyl (1-methyl-4-(5-(6-(trifluoromethyl)nicotinamido)pyrazin-2-yl)-1H-1,2,3-triazol-5-yl)carbamate], which EC50 is on record?
Answer: The EC50 was 305 nM.

Question: Which EC50 does the source give for C[C@@H](OC(=O)Nc1c(-c2cnc(NC(=O)c3cnc(C(F)F)nc3)cn2)nnn1C)c1cccnc1F [Compound 327, (R)-1-(2-fluoropyridin-3-yl)ethyl (4-(5-(2-(difluoromethyl)pyrimidine-5-carboxamido)pyrazin-2-yl)-1-methyl-1H-1,2,3-triazol-5-yl)carbamate] here?
Answer: The EC50 was 255 nM.

Question: For C[C@@H](OC(=O)Nc1c(-c2cnc(NC(=O)C3(C#N)CC3)cn2)nnn1C)c1cc(F)cnc1F [Compound 328, (R)-1-(2,5-difluoropyridin-3-yl)ethyl (4-(5-(1-cyanocyclopropane-1-carboxamido)pyrazin-2-yl)-1-methyl-1H-1,2,3-triazol-5-yl)carbamate], which EC50 is on record?
Answer: Its EC50 is 1130 nM.

Question: Which EC50 does the source give for C[C@@H](OC(=O)Nc1c(-c2ncc(NC(=O)C3(C#N)CC3)cn2)nnn1C)c1cc(F)cnc1Cl [Compound 329, (R)-1-(2-chloro-5-fluoropyridin-3-yl)ethyl (4-(5-(1-cyanocyclopropane-1-carboxamido)pyrimidin-2-yl)-1-methyl-1H-1,2,3-triazol-5-yl)carbamate] here?
Answer: The EC50 was 749 nM.

Question: Which EC50 does the source give for C[C@@H](OC(=O)Nc1c(-c2ncc(NC(=O)C34CC(F)(C3)C4)cn2)nnn1C)c1cc(F)cnc1Cl [Compound 330, (R)-1-(2-chloro-5-fluoropyridin-3-yl)ethyl (4-(5-(3-fluorobicyclo[1.1.1]pentane-1-carboxamido)pyrimidin-2-yl)-1-methyl-1H-1,2,3-triazol-5-yl)carbamate] here?
Answer: The EC50 was 600 nM.

Question: C[C@@H](OC(=O)Nc1c(-c2ncc(NC(=O)[C@@H]3C[C@H]3C(F)(F)F)cn2)nnn1C)c1cc(F)cnc1Cl [Compound 331, (R)-1-(2-chloro-5-fluoropyridin-3-yl)ethyl (1-methyl-4-(5-((1R,2R)-2-(trifluoromethyl)cyclopropane-1-carboxamido)pyrimidin-2-yl)-1H-1,2,3-triazol-5-yl)carbamate] was tested. Which EC50 did it give?
Answer: Its EC50 is 22.8 nM.

Question: How did the EC50 turn out when C[C@@H](OC(=O)Nc1c(-c2ncc(NC(=O)c3ccc(C(F)(F)F)nc3)cn2)nnn1C)c1cc(F)cnc1Cl [Compound 332, (R)-1-(2-chloro-5-fluoropyridin-3-yl)ethyl (1-methyl-4-(5-(6-(trifluoromethyl)nicotinamido)pyrimidin-2-yl)-1H-1,2,3-triazol-5-yl)carbamate] was run?
Answer: The EC50 was 354 nM.

Question: Which EC50 does the source give for C[C@@H](OC(=O)Nc1c(-c2cnc(NC(=O)C34CC(F)(C3)C4)cn2)nnn1C)c1cc(F)cnc1Cl [Compound 333, (R)-1-(2-chloro-5-fluoropyridin-3-yl)ethyl (4-(5-(3-fluorobicyclo[1.1.1]pentane-1-carboxamido)pyrazin-2-yl)-1-methyl-1H-1,2,3-triazol-5-yl)carbamate] here?
Answer: Its EC50 is 219 nM.

Question: Which EC50 does the source give for CO[C@]1(C#N)C[C@@H](C(=O)Nc2cnc(-c3nnn(C)c3NC(=O)O[C@H](C)c3cc(F)cnc3F)nc2)C1 [Compound 334, (R)-1-(2,5-difluoropyridin-3-yl)ethyl (4-(5-((1r,3R)-3-cyano-3-methoxycyclobutane-1-carboxamido)pyrimidin-2-yl)-1-methyl-1H-1,2,3-triazol-5-yl)carbamate] here?
Answer: Its EC50 is 3420 nM.

Question: How did the EC50 turn out when CO[C@]1(C#N)C[C@H](C(=O)Nc2cnc(-c3nnn(C)c3NC(=O)O[C@H](C)c3cc(F)cnc3F)nc2)C1 [Compound 335, (R)-1-(2,5-difluoropyridin-3-yl)ethyl (4-(5-((1s,3S)-3-cyano-3-methoxycyclobutane-1-carboxamido)pyrimidin-2-yl)-1-methyl-1H-1,2,3-triazol-5-yl)carbamate] was run?
Answer: Its EC50 is 778 nM.

Question: C[C@@H](OC(=O)Nc1c(-c2ncc(NC(=O)C3(C#N)CC3)cc2F)nnn1C)c1cc(F)cnc1F [Compound 336, (R)-1-(2,5-difluoropyridin-3-yl)ethyl (4-(5-(1-cyanocyclopropane-1-carboxamido)-3-fluoropyridin-2-yl)-1-methyl-1H-1,2,3-triazol-5-yl)carbamate] was tested. Which EC50 did it give?
Answer: Its EC50 is 258 nM.

Question: For C[C@@H](OC(=O)Nc1c(-c2ncc(NC(=O)C34CC(C#N)(C3)C4)cc2F)nnn1C)c1cc(F)cnc1F [Compound 337, (R)-1-(2,5-difluoropyridin-3-yl)ethyl (4-(5-(3-cyanobicyclo[1.1.1]pentane-1-carboxamido)-3-fluoropyridin-2-yl)-1-methyl-1H-1,2,3-triazol-5-yl)carbamate], which EC50 is on record?
Answer: The EC50 was 163 nM.

Question: For C[C@@H](OC(=O)Nc1c(-c2ncc(NC(=O)c3ccc(Cl)nc3)cc2F)nnn1C)c1cc(F)cnc1F [Compound 338, (R)-1-(2,5-difluoropyridin-3-yl)ethyl (4-(5-(6-chloronicotinamido)-3-fluoropyridin-2-yl)-1-methyl-1H-1,2,3-triazol-5-yl)carbamate], which EC50 is on record?
Answer: The EC50 was 132 nM.
